Tests used:
human CCR6 [1] = molecular target: T1, human CCR6 (Homo sapiens, UniProt P51684); test: CHO-K1 CCR6 chemotaxis assay towards CCL20; format: cell-based; conditions: relative -Log IC50; CHO-K1 cells overexpressing human CCR6; migration towards 100 ng/ml CCL20; 4 h
T1 sequence (P51684 1-374): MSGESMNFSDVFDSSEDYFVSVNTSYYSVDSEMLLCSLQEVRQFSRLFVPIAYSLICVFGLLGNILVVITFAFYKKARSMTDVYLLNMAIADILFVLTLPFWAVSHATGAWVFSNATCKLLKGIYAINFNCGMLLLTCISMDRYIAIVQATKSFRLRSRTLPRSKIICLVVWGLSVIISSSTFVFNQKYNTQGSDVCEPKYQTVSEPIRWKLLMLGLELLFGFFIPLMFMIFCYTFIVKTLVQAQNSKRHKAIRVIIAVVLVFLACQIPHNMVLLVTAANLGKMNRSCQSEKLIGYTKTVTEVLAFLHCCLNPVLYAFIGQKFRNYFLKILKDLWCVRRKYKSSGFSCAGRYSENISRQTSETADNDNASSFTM
Text: CHO-K1 CCR6 Chemotaxis Assay Towards CCL20
Cells overexpressing human CCR6 were used in the chemotaxis assay (DiscoverX, cAMP Hunter™ CHO-K1 CCR6 Gi Cell Line). Growth medium of these cells consisted of DMEM/F12, non-essential Amino acids (1×NEAA, Gibco 11140050), 10% FBS and 1× pen/strep (Gibco 15140). For the chemotaxis assay, Corning Transwell plates were used with a pore size of 8 m (Corning 351164). Cells were harvested using trypsin and diluted to 4*10^6 cells/ml in chemotaxis medium (DMEM, 0.25% BSA, pen/strep). Compounds were four-fold serially diluted in DMSO. Further dilutions were made in chemotaxis medium. Cells were incubated with test compounds for 30 min at 37° C. prior to initiation of the assay (2*10^6 cells/ml). Final DMSO concentration in the assay was 0.2%. Wells of the Transwell plates were filled with 200 μl chemotaxis medium containing 100 ng/ml CCL20 (R&D systems 360-MP). 50 μl of the cell/compound suspension was added to the inserts of the Transwell plates (100,000 cells/insert). The Transwell plates were placed in an incubator at 37° C., 5% CO2 for 4 h. After 4 h, the number of migrated cells was quantified using CellTiter Glo (Promega). Percentage inhibition values were calculated based on the low and high signal obtained with 0.2% DMSO in chemotaxis medium without and with CCL20, respectively. The relative −Log IC50 was determined with GraphPad Prism 9 using a four-parameter dose-response model.

human CCR6 [2] = molecular target: T1, human CCR6; test: Human CCR6-CRE reporter assay; format: cell-based; parameters: The second construct contained the open reading frame of human CCR6 in the pUNO1 backbone; host or cells: 293FT cells; conditions: relative -Log IC50; 293FT cells transfected with human CCR6 and CRE-luciferase reporter; 6 μM Forskolin, 6 nM CCL20; 5 h
Summary of the method: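 293FT cells transiently co-transfected with human CCR6 and a CRE-luc2P reporter, used 48 h later. Compounds incubated with cells in medium containing 6 μM Forskolin and 6 nM CCL20 (assay-medium levels), 0.1% DMSO final, 5 h at 37° C; luminescence read, relative −Log IC50 from four-parameter fit.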

Row | SMILES | IC50 (human CCR6 [1]) [µM] | IC50 (human CCR6 [2]) [µM]
1 | O=c1[nH]nc2ccc(-c3ccc(S(=O)(=O)[C@H]4CC[C@H](Nc5ccc(S(F)(F)(F)(F)F)cc5)CC4)cc3)cn12 [Example 66, 6-(4-{[trans-4-{[4-(pentafluoro-λ^6-sulfanyl)phenyl]Amino}cyclohexyl]sulfonyl}phenyl)-2H,3H-[1,2,4]triazolo[4,3-a]pyridin-3-one] | 0.0398 | 0.0631
2 | CN(C)C(=O)c1ccc(-c2ccc(S(=N)(=O)[C@H]3CC[C@H](Nc4ccc(S(F)(F)(F)(F)F)cc4)CC3)cc2)cc1 (stereo partly drawn) [Example 92, N,N-dimethyl-4′-{[trans-4-{[4-(pentafluoro-λ^6-sulfanyl)phenyl]Amino}cyclohexyl]sulfonimidoyl}-[1,1′-biphenyl]-4-carboxamide] | 1.58 | 0.2
3 | O=C1NCCCn2cc(-c3ccc(S(=O)(=O)[C@H]4CC[C@H](Nc5ccc(S(F)(F)(F)(F)F)cc5)CC4)cc3)cc21 [Example 155, 8-(4-{[trans-4-{[4-(pentafluoro-λ^6-sulfanyl)phenyl]amino}cyclohexyl]sulfonyl}phenyl)-1H,2H,3H,4H,5H-pyrrolo[1,2-a][1,4]diazepin-1-one] | 0.0316 | 0.158
4 | O=S(=O)(c1ccc(-c2cn3ccnc3cn2)cc1)N1CCC(Nc2ccc(S(F)(F)(F)(F)F)cc2)CC1 [Example 24, 1-(4-{imidazo[1,2-a]pyrazin-6-yl}benzenesulfonyl)-N-[4-(pentafluoro-λ^6-sulfanyl)phenyl]piperidin-4-amine] | 0.501 | 0.2
5 | N#Cc1c[nH]c2ccc(-c3ccc(S(=N)(=O)[C@H]4CC[C@H](Nc5ccc(S(F)(F)(F)(F)F)cc5)CC4)cc3)cc12 (single isomer, unassigned; (-)) [Example 127, (−)-5-(4-{[trans-4-{[4-(pentafluoro-λ^6-sulfanyl)phenyl]Amino}cyclohexyl]sulfonimidoyl}phenyl)-1H-indole-3-carbonitrile] | 0.251 | 0.316
6 | CN(C)C(=O)c1cccc(-c2ccc(S(=O)(=O)[C@H]3CC[C@H](Nc4ccc(S(F)(F)(F)(F)F)cc4)CC3)cc2)c1 [Example 19, N,N-dimethyl-4′-{[trans-4-{[4-(pentafluoro-λ^6-sulfanyl)phenyl]Amino}cyclohexyl]sulfonyl}-[1,1′-biphenyl]-3-carboxamide] | 0.398 | 0.0631
7 | O=S(=O)(c1ccc(-c2cc3cn[nH]c3cn2)cc1)[C@H]1CC[C@H](Nc2ccc(S(F)(F)(F)(F)F)cc2)CC1 [Example 147, 4-(pentafluoro-λ^6-sulfanyl)-N-[trans-4-(4-{1H-pyrazolo[3,4-c]pyridin-5-yl}benzenesulfonyl)cyclohexyl]aniline] | 0.0398 | 0.2
8 | COCc1nnc2ccc(-c3ccc(S(=O)(=O)N4CCC(Nc5ccc(S(F)(F)(F)(F)F)cc5)CC4)cc3)cn12 [Example 30, 1-{4-[3-(methoxymethyl)-[1,2,4]triazolo[4,3-a]pyridin-6-yl]benzenesulfonyl}-N-[4-(pentafluoro-λ^6-sulfanyl)phenyl]piperidin-4-amine] | 0.251 | 0.0501
9 | CNC(=O)c1ccc(-c2ccc(S(=O)(=O)N3CCC(Nc4ccc(S(F)(F)(F)(F)F)cc4)CC3)cc2)cc1F [Example 139, 3-fluoro-N-methyl-4′-[(4-{[4-(pentafluoro-λ^6-sulfanyl)phenyl]amino}piperidin-1-yl)sulfonyl]-[1,1′-biphenyl]-4-carboxamide] | 0.01 | 0.0631
10 | N=S(=O)(c1ccc(-c2ccc3nccn3c2)cc1)N1CCC(Nc2ccc(S(F)(F)(F)(F)F)cc2)CC1 (stereo not drawn) [Example 124, (4-{imidazo[1,2-a]pyridin-6-yl}phenyl)(4-{[4-(pentafluoro-λ^6-sulfanyl)phenyl]Amino}piperidin-1-yl)(imino)-λ^6-sulfanone] | 0.126 | 0.2
11 | N=S(=O)(c1ccc(-c2ccc3nccn3c2)cc1)[C@H]1CC[C@H](Nc2ccc(S(F)(F)(F)(F)F)cc2)CC1 (single isomer, unassigned; (-)) [Example 129, (−)-(4-{imidazo[1,2-a]pyridin-6-yl}phenyl)[trans-4-{[4-(pentafluoro-λ^6-sulfanyl)phenyl]Amino}cyclohexyl](imino)-λ^6-sulfanone] | 0.316 | 0.2
12 | N#Cc1cnc2ccc(-c3ccc(S(=O)(=O)[C@H]4CC[C@H](Nc5ccc(S(F)(F)(F)(F)F)cc5)CC4)cc3)cn12 [Example 33, 6-(4-{[trans-4-{[4-(pentafluoro-λ^6-sulfanyl)phenyl]Amino}cyclohexyl]sulfonyl}phenyl)imidazo[1,2-a]pyridine-3-carbonitrile] | 0.00794 | 0.0631
13 | NC(=O)c1cccc(-c2ccc(S(=O)(=O)[C@H]3CC[C@H](Nc4ccc(S(F)(F)(F)(F)F)cc4)CC3)cc2)c1 [Example 23, 4′-{[trans-4-{[4-(pentafluoro-λ^6-sulfanyl)phenyl]Amino}cyclohexyl]sulfonyl}-[1,1′-biphenyl]-3-carboxamide] | 0.0501 | 0.0501
14 | N=S(=O)(c1ccc(-c2ccc3c(c2)CC(=O)N3)cc1)N1CCC(Nc2ccc(S(F)(F)(F)(F)F)cc2)CC1 (stereo not drawn) [Example 123, 5-{4-[(4-{[4-(pentafluoro-λ^6-sulfanyl)phenyl]Amino}piperidin-1-yl)sulfonimidoyl]phenyl}-2,3-dihydro-1H-indol-2-one] | 0.2 | 0.251
15 | CNC(=O)c1ccc(-c2ccc(S(=N)(=O)[C@H]3CC[C@H](Nc4ccc(S(F)(F)(F)(F)F)cc4)CC3)cc2)cn1 (stereo partly drawn) [Example 101, N-methyl-5-(4-{[trans-4-{[4-(pentafluoro-λ^6-sulfanyl)phenyl]Amino}cyclohexyl]sulfonimidoyl}phenyl)pyridine-2-carboxamide] | 0.794 | 0.316
16 | O=C1Cc2cc(-c3ccc(S(=O)(=O)[C@H]4CC[C@H](Nc5ccc(S(F)(F)(F)(F)F)cc5)CC4)cc3)ccc2N1 [Example 14, 5-(4-{[trans-4-{[4-(pentafluoro-λ^6-sulfanyl)phenyl]Amino}cyclohexyl]sulfonyl}phenyl)-2,3-dihydro-1H-indol-2-one] | 1.26 | 0.2
17 | O=S(=O)(c1ccc(-c2cn3ccnc3cn2)cc1)[C@H]1CC[C@H](Nc2ccc(S(F)(F)(F)(F)F)cc2)CC1 [Example 44, 4-(pentafluoro-λ^6-sulfanyl)-N-[trans-4-(4-{imidazo[1,2-a]pyrazin-6-yl}benzenesulfonyl)cyclohexyl]aniline] | 0.158 | 0.158
18 | NC(=O)c1cc(-c2ccc(S(=O)(=O)[C@H]3CC[C@H](Nc4ccc(S(F)(F)(F)(F)F)cc4)CC3)cc2)cn2ccnc12 [Example 157, 6-(4-{[trans-4-{[4-(pentafluoro-λ^6-sulfanyl)phenyl]amino}cyclohexyl]sulfonyl}phenyl)imidazo[1,2-a]pyridine-8-carboxamide] | 0.00251 | 0.0794
19 | Cc1nnc2ccc(-c3ccc(S(=N)(=O)[C@H]4CC[C@H](Nc5ccc(S(F)(F)(F)(F)F)cc5)CC4)cc3)cn12 (stereo partly drawn) [Example 105, (4-{3-methyl-[1,2,4]triazolo[4,3-a]pyridin-6-yl}phenyl)[trans-4-{[4-(pentafluoro-λ^6-sulfanyl)phenyl]Amino}cyclohexyl](imino)-λ^6-sulfanone] | 0.631 | 0.398
20 | N=S(=O)(c1ccc(-c2ccc3nnc(C(F)F)n3c2)cc1)[C@H]1CC[C@H](Nc2ccc(S(F)(F)(F)(F)F)cc2)CC1 (stereo partly drawn) [Example 169, {4-[3-(difluoromethyl)-[1,2,4]triazolo[4,3-a]pyridin-6-yl]phenyl}[trans-4-{[4-(pentafluoro-λ^6-sulfanyl)phenyl]amino}cyclohexyl](imino)-λ^6-sulfanone] | 0.0794 | 0.316
21 | N=S(=O)(c1ccc(-c2ccc3nccn3c2)cc1)[C@H]1CC[C@H](Nc2ccc(S(F)(F)(F)(F)F)cc2)CC1 (single isomer, unassigned; (+)) [Example 128, (+)-(4-{imidazo[1,2-a]pyridin-6-yl}phenyl)[trans-4-{[4-(pentafluoro-λ^6-sulfanyl)phenyl]Amino}cyclohexyl](imino)-λ^6-sulfanone] | 0.251 | 0.126
